Source: patent US10028956B2, “Methods of treating various cancers using an AXL/cMET inhibitor in combination with other agents” (Ignyta, Inc., priority 2013, dated 2018)
Marks after values point to notes of the source that are not given here.

Experiments:
Format in all cases: in vivo, mice
[1] = test system: CTG-0157 primary NSCLC human TumorGraft; experiment: NSCLC TumorGraft model CTG-0157; details: CTG-0157, 14 days, 10 mg/kg iv/q4dx3
Experimental: (§1) Methods (for the experiments shown in FIGS. 10 and 11) • Female immunocompromised nu/nu mice (Harlan) between 6-9 weeks of age were housed on irradiated papertwist-enriched ⅛″ corncob bedding (Sheperd) in individual HEPA ventilated cages (Innocage® IVC, Innovive USA) on a 12-hour light-dark cycle at 68-74° F. (20-23° C.) and 30-70% humidity. Animals were fed water ad libitum (reverse osmosis, 2 ppm Cl2) and an irradiated Test rodent diet (Teklad 2919) consisting of 19% protein, 9% fat, and 4% fiber. • Tumor Models: Champions TumorGraft models of NSCLC are owned by Champions Oncology. In this study, animals were implanted unilaterally on the right flank with tumor fragments harvested from host animals. […] Erlotinib (manufacturer: OSI Pharmaceuticals; National Drug Code: 50242-062-01; Lot #: US0002) was formulated using 100% PEG-400 as the vehicle according to manufacturer's specifications.
(§2) Efficacy measurements: Beginning Day 0, tumor dimensions were measured twice weekly by digital caliper (Fowler Ultra-Cal IV) and data including individual and mean estimated tumor volumes (Mean TV±SEM) were recorded for each group; tumor volume was calculated using the formula TV=width^2×length×0.52. At study completion, percent tumor growth inhibition (% TGI) values were calculated and reported for each treatment group (T) versus control (C) using initial (i) and final (f) tumor measurements by the formula: % TGI=1−Tf−Ti/Cf−C; single agent or combination therapies resulting in a TGI>50 at study completion are considered active in the tested model at the evaluated treatment regimen according to NCI guidelines. […] If the PR persisted until study completion, percent tumor regression (% TR) was determined using the formula: % TR=1−Tf/Ti×100; a mean value was calculated if multiple PR mice occurred in one group. […] Statistical differences in tumor volume were determined using a two-tailed One-Way Analysis of Variance (ANOVA) followed by the Dunett's multiple comparisons test comparing treated groups with control and combinations with standard agent alone when possible. […]

[2] = test system: CTG-0159 primary NSCLC human TumorGraft; experiment: NSCLC TumorGraft model CTG-0159; details: CTG-0159, 14 days, 10 mg/kg iv/q4dx3
Experimental: as §1, §2

[3] = test system: CTG-0165 erlotinib-insensitive primary NSCLC human TumorGraft; experiment: NSCLC TumorGraft model CTG-0165; details: CTG-0165, 37 days, 10 mg/kg iv/q4dx3
Experimental: as §1
(§3) Efficacy measurements: Beginning Day 0, tumor dimensions were measured twice weekly by digital caliper (Fowler Ultra-Cal IV) and data including individual and mean estimated tumor volumes (Mean TV±SEM) were recorded for each group; tumor volume was calculated using the formula TV=width^2×length×0.52. At study completion, percent tumor growth inhibition (% TGI) values were calculated and reported for each treatment group (T) versus control (C) using initial (i) and final (f) tumor measurements by the formula: % TGI=1−Tf−Ti/Cf−C; single agent or combination therapies resulting in a TGI>50 at study completion are considered active in the tested model at the evaluated treatment regimen according to NCI guidelines. Individual mice reporting a tumor volume ≤50% of the Day 0 measurement for two consecutive measurements over a seven day period were considered partial responders (PR). If the PR persisted until study completion, percent tumor regression (% TR) was determined using the formula: % TR=1−Tf/Ti×100; a mean value was calculated if multiple PR mice occurred in one group. Individual mice lacking palpable tumors (<4×4 mm^2 for two consecutive measurements over a seven day period) were classified as complete responders (CR); a CR that persisted until study completion was considered a tumor-free survivor (TFS). TFS animals are excluded from efficacy calculations. Statistical differences in tumor volume were determined using a two-tailed One-Way Analysis of Variance (ANOVA) followed by the Dunett's multiple comparisons test comparing treated groups with control and combinations with standard agent alone when possible. All data collected in this study was managed electronically and stored on a redundant server system.

[4] = test system: CTG-0170 erlotinib-insensitive primary NSCLC human TumorGraft; experiment: NSCLC TumorGraft model CTG-0170; details: CTG-0170, 10 days, 10 mg/kg iv/q4dx3
Experimental: as §1, §3

[5] = test system: CTG-0192 erlotinib-sensitive NSCLC TumorGraft; experiment: NSCLC TumorGraft model CTG-0192
Experimental: as §1, §3

Structure (SMILES): CC(=O)O[C@H]1C(=O)[C@@]2(C)[C@H]([C@H](OC(=O)c3ccccc3)[C@]3(O)C[C@H](OC(=O)[C@H](O)[C@@H](NC(=O)c4ccccc4)c4ccccc4)C(C)=C1C3(C)C)[C@]1(OC(C)=O)CO[C@@H]1C[C@@H]2O [Paclitaxel, reference compound]
- % Tumor Growth Inhibition [1]: 41%
- % Tumor Growth Inhibition [2]: 25%*
- % Tumor Growth Inhibition [3]: 56%*
- % Tumor Growth Inhibition [4]: 77%*
- % Tumor Growth Inhibition ([5]; CTG-0192, 32 days, 10 mg/kg iv/q4dx3): 105%*

Structure (SMILES): C#Cc1cccc(Nc2ncnc3cc(OCCOC)c(OCCOC)cc23)c1 [erlotinib, reference compound]
- day of acquired resistance ([5]; CTG-0192, 35 mg/kg, po, qd×34): ~29 days
- tumor regrowth after discontinuation of dosing (day 34) ([5]; CTG-0192, 35 mg/kg, po, qd×34): rate of tumor regrowth was similar to control/vehicle
- tumor response during dosing ([5]; CTG-0192, 35 mg/kg, po, qd×34): initial sensitivity followed by acquired erlotinib-resistance
